Usually inhibition stands for the drop in the measured response relative to a control, in per cent. Read a high inhibition as a response far below the control.

Experimental findings from patent EP4247399B1, “COMPOSITION COMPRISING NATURAL EXTRACTS AND USES THEREOF” (Esserre Pharma Srl, priority 2020, dated 2022) are described below.

The assay deals with T1, HMG-CoA reductase (Homo sapiens, UniProt P04035).
T1 construct: purchased Sigma-Aldrich CS1090
T1 sequence (P04035 426-888 limits assumed): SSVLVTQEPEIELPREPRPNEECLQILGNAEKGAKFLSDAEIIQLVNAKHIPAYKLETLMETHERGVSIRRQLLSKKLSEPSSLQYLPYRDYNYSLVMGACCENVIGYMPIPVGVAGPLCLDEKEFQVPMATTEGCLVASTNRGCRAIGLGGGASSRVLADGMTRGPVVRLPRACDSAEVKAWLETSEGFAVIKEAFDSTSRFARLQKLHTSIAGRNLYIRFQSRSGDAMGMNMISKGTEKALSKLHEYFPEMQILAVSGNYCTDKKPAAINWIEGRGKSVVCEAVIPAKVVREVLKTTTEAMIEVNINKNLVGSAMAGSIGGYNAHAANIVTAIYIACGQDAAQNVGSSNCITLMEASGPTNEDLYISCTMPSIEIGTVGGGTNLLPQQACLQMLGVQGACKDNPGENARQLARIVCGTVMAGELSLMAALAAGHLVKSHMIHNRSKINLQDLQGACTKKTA
Nature of the assay: HMG-CoA reductase inhibition test (HMG-CoA Reductase Assay Kit, decrease in absorbance at 340 nm). Type of assay: biochemical. Conditions: positive control.

Method: The purpose of the test is to evaluate the hypocholesterolemic activity of the test samples by determining the inhibition of the enzyme 3-hydroxy-3-methylglutaryl-CoA reductase (HMG-CoA reductase).
The test for the HMG-CoA reductase enzyme inhibitory capacity was performed using the special kit (HMG-CoA Reductase Assay Kit, Catalogue Number CS1090, Sigma-Aldrich) and related experimental protocol.
The experiments were carried out in triplicate.
5 mL of buffer were added to 50 mg of the test sample and the solution obtained was then suitably filtered and used for the test.
A 100 µM Pravastatin solution (0.042 mg/mL, Sigma Aldrich) was used as a positive control.
The samples thus prepared were stirred for 10 seconds. Absorbance was then measured at 340 nm for 10 minutes while maintaining the samples at 37°C.
The ability to inhibit enzyme activity was then expressed as percent inhibition and calculated according to the following Equation (1): %Hinibition = ((ΔAControl −ΔAsample)/(ΔAControl)) × 100% [formula] where the value of ΔA is given by the difference between the absorbance recorded at the start time and that recorded after 10 minutes for the control and for the sample respectively. […]

Compound `CC[C@H](C)C(=O)O[C@H]1C[C@H](O)C=C2C=C[C@H](C)[C@H](CC[C@@H](O)C[C@@H](O)CC(=O)O)[C@H]21` [Pravastatin] had an inhibition at 10 µg/mL (Pravastatin 0.01 mg/mL (10 µg/mL)) of 99.8%. For the setting “Pravastatin 0.042 mg/ml (100 µM)”, this compound gave an inhibition at 100 µM of 99.6 ± 1.1%.
